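96-well plates; 48 h exposure; 5 concentrations. Endpoints by linear interpolation between flanking doses. Not reached: highest tested concentration assigned. GI50: concentration for 50% inhibition of growth. TGI denotes the concentration required for complete inhibition of growth.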
What was measured:
Experiment in all cases: NCI-60 cell line screen, 48 h
786-0 renal = system: 786-0 renal
A498 renal = system: A498 renal
A549 NSCLC = system: A549 NSCLC
ACHN renal = system: ACHN renal
BT-549 breast = system: BT-549 breast
CAKI-1 renal = system: CAKI-1 renal
CCRF-CEM leukemia = system: CCRF-CEM leukemia
COLO 205 colon = system: COLO 205 colon
DU-145 prostate = system: DU-145 prostate
EKVX NSCLC = system: EKVX NSCLC
HCC-2998 colon = system: HCC-2998 colon
HCT-116 colon = system: HCT-116 colon
HCT-15 colon = system: HCT-15 colon
HL-60(TB) leukemia = system: HL-60(TB) leukemia
HOP-62 NSCLC = system: HOP-62 NSCLC
HOP-92 NSCLC = system: HOP-92 NSCLC
HS 578T breast = system: HS 578T breast
HT29 colon = system: HT29 colon
IGROV1 ovarian = system: IGROV1 ovarian
K-562 leukemia = system: K-562 leukemia
KM12 colon = system: KM12 colon
LOX IMVI melanoma = system: LOX IMVI melanoma
M14 melanoma = system: M14 melanoma
MALME-3M melanoma = system: MALME-3M melanoma
MCF7 breast = system: MCF7 breast
MDA-MB-231 breast = system: MDA-MB-231 breast
MDA-MB-435 = system: MDA-MB-435
MDA-MB-468 breast = system: MDA-MB-468 breast
MOLT-4 leukemia = system: MOLT-4 leukemia
NCI-H226 lung = system: NCI-H226 lung
NCI-H23 lung = system: NCI-H23 lung
NCI-H460 lung = system: NCI-H460 lung
NCI-H522 lung = system: NCI-H522 lung
NCI/ADR-RES ovarian = system: NCI/ADR-RES ovarian
OVCAR-3 ovarian = system: OVCAR-3 ovarian
OVCAR-4 ovarian = system: OVCAR-4 ovarian
OVCAR-5 ovarian = system: OVCAR-5 ovarian
OVCAR-8 ovarian = system: OVCAR-8 ovarian
PC-3 prostate = system: PC-3 prostate
RPMI-8226 leukemia = system: RPMI-8226 leukemia
RXF 393 renal = system: RXF 393 renal
SF-268 CNS = system: SF-268 CNS
SF-295 CNS = system: SF-295 CNS
SF-539 CNS = system: SF-539 CNS
SK-MEL-2 melanoma = system: SK-MEL-2 melanoma
SK-MEL-28 melanoma = system: SK-MEL-28 melanoma
SK-MEL-5 melanoma = system: SK-MEL-5 melanoma
SK-OV-3 ovarian = system: SK-OV-3 ovarian
SN12C renal = system: SN12C renal
SNB-19 CNS = system: SNB-19 CNS
SNB-75 CNS = system: SNB-75 CNS
SR leukemia = system: SR leukemia
SW-620 colon = system: SW-620 colon
T-47D breast = system: T-47D breast
TK-10 renal = system: TK-10 renal
U251 CNS = system: U251 CNS
UACC-257 melanoma = system: UACC-257 melanoma
UACC-62 melanoma = system: UACC-62 melanoma
UO-31 renal = system: UO-31 renal

O=C(Nc1ccc(-c2ccc3c(c2)NC(=O)/C3=C\c2ccc[nH]2)cc1)Nc1cccc(Cl)c1
GI50 (786-0 renal): 2420 nM
TGI (786-0 renal): 7.45 µM
GI50 (A498 renal): 3.46 µM
TGI (A498 renal): 11.1 µM
GI50 (A549 NSCLC): 2090 nM
TGI (A549 NSCLC): 7.09 µM
GI50 (ACHN renal): 1810 nM
TGI (ACHN renal): 6.57 µM
GI50 (BT-549 breast): 2330 nM
TGI (BT-549 breast): 6.65 µM
GI50 (CAKI-1 renal): 1330 nM
TGI (CAKI-1 renal): 6.39 µM
GI50 (CCRF-CEM leukemia): 846 nM
TGI (CCRF-CEM leukemia): 4.41 µM
GI50 (COLO 205 colon): 1920 nM
TGI (COLO 205 colon): 3.79 µM
GI50 (DU-145 prostate): 4.76 µM
TGI (DU-145 prostate): 92.8 µM
GI50 (EKVX NSCLC): 775 nM
TGI (EKVX NSCLC): 10.7 µM
GI50 (HCC-2998 colon): 1780 nM
TGI (HCC-2998 colon): 5.61 µM
GI50 (HCT-116 colon): 1680 nM
TGI (HCT-116 colon): 11.7 µM
GI50 (HCT-15 colon): 1900 nM
TGI (HCT-15 colon): 10.8 µM
GI50 (HL-60(TB) leukemia): 1640 nM
TGI (HL-60(TB) leukemia): 14.5 µM
GI50 (HOP-62 NSCLC): 1990 nM
TGI (HOP-62 NSCLC): 6.15 µM
GI50 (HOP-92 NSCLC): 4.81 µM
TGI (HOP-92 NSCLC): 24.4 µM
GI50 (HS 578T breast): 2730 nM
TGI (HS 578T breast): 8.74 µM
GI50 (HT29 colon): 1860 nM
TGI (HT29 colon): 4.54 µM
GI50 (IGROV1 ovarian): 1700 nM
TGI (IGROV1 ovarian): 3.78 µM
GI50 (K-562 leukemia): 1090 nM
TGI (K-562 leukemia): > 100 µM
GI50 (KM12 colon): 67.2 nM
TGI (KM12 colon): 2000 nM
GI50 (LOX IMVI melanoma): 1530 nM
TGI (LOX IMVI melanoma): 3.39 µM
GI50 (M14 melanoma): 3.23 µM
TGI (M14 melanoma): 26.1 µM
GI50 (MALME-3M melanoma): 2320 nM
TGI (MALME-3M melanoma): 7.2 µM
GI50 (MCF7 breast): 329 nM
TGI (MCF7 breast): 7.58 µM
GI50 (MDA-MB-231 breast): 1640 nM
TGI (MDA-MB-231 breast): 3.86 µM
GI50 (MDA-MB-435): 1000 nM
TGI (MDA-MB-435): 14.1 µM
GI50 (MDA-MB-468 breast): 286 nM
TGI (MDA-MB-468 breast): 838 nM
GI50 (MOLT-4 leukemia): 895 nM
TGI (MOLT-4 leukemia): 11.1 µM
GI50 (NCI-H226 lung): 2510 nM
TGI (NCI-H226 lung): 9.27 µM
GI50 (NCI-H23 lung): 1080 nM
TGI (NCI-H23 lung): 3.79 µM
GI50 (NCI-H460 lung): 766 nM
TGI (NCI-H460 lung): 4 µM
GI50 (NCI-H522 lung): 1600 nM
TGI (NCI-H522 lung): 5.1 µM
GI50 (NCI/ADR-RES ovarian): 2140 nM
TGI (NCI/ADR-RES ovarian): 6.01 µM
GI50 (OVCAR-3 ovarian): 1690 nM
TGI (OVCAR-3 ovarian): 3.85 µM
GI50 (OVCAR-4 ovarian): 1760 nM
TGI (OVCAR-4 ovarian): 9.71 µM
GI50 (OVCAR-5 ovarian): 1780 nM
TGI (OVCAR-5 ovarian): 3.76 µM
GI50 (OVCAR-8 ovarian): 2440 nM
TGI (OVCAR-8 ovarian): 6.53 µM
GI50 (PC-3 prostate): 2190 nM
TGI (PC-3 prostate): 11.2 µM
GI50 (RPMI-8226 leukemia): 2620 nM
TGI (RPMI-8226 leukemia): 15.3 µM
GI50 (RXF 393 renal): 2070 nM
TGI (RXF 393 renal): 4.52 µM
GI50 (SF-268 CNS): 4.6 µM
TGI (SF-268 CNS): 60.9 µM
GI50 (SF-295 CNS): 1900 nM
TGI (SF-295 CNS): 5.02 µM
GI50 (SF-539 CNS): 1430 nM
TGI (SF-539 CNS): 3.06 µM
GI50 (SK-MEL-2 melanoma): 2200 nM
TGI (SK-MEL-2 melanoma): 6.05 µM
GI50 (SK-MEL-28 melanoma): 3.09 µM
TGI (SK-MEL-28 melanoma): 10.2 µM
GI50 (SK-MEL-5 melanoma): 1880 nM
TGI (SK-MEL-5 melanoma): 4.5 µM
GI50 (SK-OV-3 ovarian): 3.43 µM
TGI (SK-OV-3 ovarian): 14.4 µM
GI50 (SN12C renal): 4.44 µM
TGI (SN12C renal): 24.3 µM
GI50 (SNB-19 CNS): 4.7 µM
TGI (SNB-19 CNS): 35.8 µM
GI50 (SNB-75 CNS): 2970 nM
TGI (SNB-75 CNS): 7.93 µM
GI50 (SR leukemia): 1270 nM
TGI (SR leukemia): 32.5 µM
GI50 (SW-620 colon): 2290 nM
TGI (SW-620 colon): 11.7 µM
GI50 (T-47D breast): 424 nM
TGI (T-47D breast): 5.36 µM
GI50 (TK-10 renal): 2880 nM
TGI (TK-10 renal): 9.85 µM
GI50 (U251 CNS): 2980 nM
TGI (U251 CNS): 11.6 µM
GI50 (UACC-257 melanoma): 3.42 µM
TGI (UACC-257 melanoma): 24.5 µM
GI50 (UACC-62 melanoma): 2100 nM
TGI (UACC-62 melanoma): 6.03 µM
GI50 (UO-31 renal): 1770 nM
TGI (UO-31 renal): 12.7 µM

Reference: PubChem BioAssay (NCI)
